Measured values reported in PubChem BioAssay (NCI).
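Five concentrations, 48 hours, 96-well plates. Here, GI50 denotes the concentration required for 50% inhibition of growth. The concentration for full growth arrest is given as TGI.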 Where a SMILES comes first, the peptide text is derived from it. [ ]: non-standard residue; d: D form. The star is where a group is joined. ξ: configuration not given here. X16 = COC1=CC(=O)N(C(=O)C(O*)C(C)C)C1Cc1ccccc1; ξNMe2Val = CC(C)C(C(=O)*)N(C)C; NMeV = CN[CH](C(=O)O)C(C)C

How the values were obtained:
Test in all cases: growth of human tumour cells (NCI), 48 h
CCRF-CEM leukemia = system: CCRF-CEM leukemia
SF-268 CNS = system: SF-268 CNS
NCI/ADR-RES ovarian = system: NCI/ADR-RES ovarian
SK-MEL-5 melanoma = system: SK-MEL-5 melanoma
NCI-H460 lung = system: NCI-H460 lung
ACHN renal = system: ACHN renal
SK-MEL-2 melanoma = system: SK-MEL-2 melanoma
M14 melanoma = system: M14 melanoma
U251 CNS = system: U251 CNS
RPMI-8226 leukemia = system: RPMI-8226 leukemia

SMILES	TGI (CCRF-CEM leukemia) [µM]	TGI (SF-268 CNS) [µM]	TGI (NCI/ADR-RES ovarian) [µM]	TGI (SK-MEL-5 melanoma) [µM]	TGI (NCI-H460 lung) [µM]	TGI (ACHN renal) [µM]	TGI (SK-MEL-2 melanoma) [µM]	TGI (M14 melanoma) [µM]	TGI (U251 CNS) [µM]	TGI (RPMI-8226 leukemia) [µM]	GI50 (SF-268 CNS) [µM]	GI50 (U251 CNS) [µM]	GI50 (SK-MEL-5 melanoma) [µM]	GI50 (NCI-H460 lung) [µM]	GI50 (SK-MEL-2 melanoma) [µM]	GI50 (RPMI-8226 leukemia) [µM]
N#Cc1c(-c2ccco2)c2c(n(C3OC(CO)C(O)C(O)C3O)c1=S)CCCC2 (centres undefined)	> 100	> 100	> 100	> 100	> 100	> 100	> 100	> 100	–	–	–	–	–	–	–	–
CS(=O)(=O)NNS(=O)(=O)c1ccc(Br)cc1	> 100	> 100	–	> 100	> 100	> 100	> 100	> 100	> 100	> 100	–	–	–	–	–	–
Cc1ncc([N+](=O)[O-])n1CCN(C)CCCCn1ccnc1[N+](=O)[O-]	> 100	> 100	–	> 100	> 100	> 100	> 100	> 100	> 100	> 100	–	–	–	–	–	–
O=[N+]([O-])/C(C(Cl)=C(Cl)Cl)=C1\Nc2ccccc2O1	38.7	> 100	–	> 100	> 100	> 100	> 100	> 100	> 100	75.6	–	–	–	–	–	–
CC12CC3c4ccccc4CN1C3(c1ccccc1)OC2=O (centres undefined)	> 100	> 100	> 100	> 100	–	> 100	> 100	> 100	> 100	–	–	–	–	–	–	–
COC1=CC(=O)N(C(=O)C(OC(=O)C2CCCN2C(=O)C2CCCN2C(=O)C(C(C)C)N(C)C(=O)C(NC(=O)C(C(C)C)N(C)C)C(C)C)C(C)C)C1Cc1ccccc1 (centres undefined) (ξNMe2Val-V[NMeV]PP-X16; configuration not given here)	0.00744	0.31	0.256	–	0.519	–	–	–	0.0109	> 4	< 0.0004	< 0.0004	< 0.0004	< 0.0004	< 0.0004	< 0.0004
Cc1c2c(n3c(nc4ccccc43)c1C#N)N(c1ccc(Cl)cc1)CC2	> 100	> 100	> 100	> 100	> 100	> 100	> 100	> 100	> 100	–	–	–	–	–	–	–
c1ccc2[nH]c(-c3nc4ccccc4o3)nc2c1	> 100	> 100	–	> 100	> 100	> 100	> 100	> 100	> 100	> 100	–	–	–	–	–	–
C=CCN1C(=O)CS/C1=N\NC(=O)c1c(C)nc2sccn12	> 100	> 100	–	> 100	> 100	> 100	> 100	–	> 100	> 100	–	–	–	–	–	–
CC(C)CN1CN(c2ccccc2)C2(CCN(CC(C)(c3ccc(F)cc3)C3OCCO3)CC2)C1=O (centres undefined)	18.1	30.1	37.4	4.95	–	15	11.5	8.46	17.2	–	–	–	–	–	–	–
Oc1c(Cl)c2nccnc2c2ccccc12	> 100	> 100	–	> 100	> 100	> 100	> 100	> 100	> 100	> 100	–	–	–	–	–	–
O=C1CC(NC(=O)C(F)(F)F)c2c(Br)sc(N3CCC(c4ccccc4)CC3)c21 (centres undefined)	> 100	> 100	> 100	68.4	> 100	> 100	> 100	> 100	25.5	–	–	–	–	–	–	–
Cc1ccc(OP2(=O)Oc3ccc4ccccc4c3CN2c2ccc(Cl)cc2)cc1C (centres undefined)	> 100	> 100	> 100	> 100	> 100	–	> 100	–	> 100	> 100	–	–	–	–	–	–
N#CC(c1ccc(O)cc1)N1CCN(C(C#N)c2ccc(O)cc2)CC1 (centres undefined)	> 100	64.4	> 100	> 100	–	> 100	> 100	> 100	51.9	> 100	–	–	–	–	–	–
c1cnc2c(c1)-n1cccc1C1(CCOCC1)NN2	> 100	> 100	–	> 100	> 100	> 100	> 100	> 100	> 100	> 100	–	–	–	–	–	–
COc1ccc(CN2C(=O)CCC/C=C\[C@H]2CI)cc1	–	27.2	28.2	25.1	25.7	27.3	23	22.6	26.5	31.2	–	–	–	–	–	–
COC(=O)c1ccc(CN2CCc3c([nH]c4ccccc34)C2CO)o1 (centres undefined)	> 10	> 10	–	> 10	–	–	–	> 10	–	> 10	–	–	–	–	–	–
Cc1ccc(-c2cc(-c3ccco3)nc(N)n2)o1	> 100	> 100	–	> 100	> 100	> 100	> 100	> 100	–	> 100	–	–	–	–	–	–
CC1(C)CCc2c(cc3c(c2O)CCC(C)(C)O3)O1	> 100	> 100	> 100	> 100	> 100	> 100	98.3	> 100	> 100	–	–	–	–	–	–	–
CC(C)(C)C1CC[C@H]2c3c([nH]c4ccc(Br)cc34)[C@H]3C(=O)N(c4ccccc4)C(=O)[C@H]3[C@H]2C1 (some centres undefined)	20.1	95.1	–	> 100	38.9	> 100	> 100	> 100	36.5	> 100	–	–	–	–	–	–
C=C/C(C)=C/[C@H](C)C(=O)C[C@H](O)CC1CC(=O)NC(=O)C1	> 100	> 100	> 100	> 100	> 100	–	> 100	–	> 100	> 100	–	–	–	–	–	–
CCCCCCCCCCCCNC(=O)NCC(OCC)OCC	> 10	> 10	–	> 10	> 10	> 10	> 10	> 10	> 10	> 10	–	–	–	–	–	–
C/C(=N\Nc1nc2cc(C)ccc2s1)c1ccccn1	> 100	9.14	0.844	4.35	52.8	11	1.35	3.68	–	3.52	–	–	–	–	–	–
